The source of these data is patent US7960590B2, “Method for producing ethyleneamines from untreated AAN” (BASF SE, priority 2007, dated 2011).

The nature of this data set: Solubility of IDAN in THF and in AAN.

On to `N#CCNCC#N` [IDAN, iminodiacetonitrile], for which the dissolved concentration is recorded as approximately 52% (in AAN at 40° C.) and approximately 35% (in AAN, room temperature, up to). Moreover, the solubility (in THF at room temperature) is approximately 10%.
